In US20050282818A1, “Ubiquitin ligase inhibitors” (Rigel Pharmaceuticals, Inc., priority 2004, published 2005) one finds IC50 data, which are given here for 22 compounds.

Read-outs that look alike come from different tables or passages of the source. Some results are limits rather than exact numbers.

For assay [1], the system named is H1299 cells. The assay can be described thus: Cell proliferation PAD assay, H1299. To be noted: Homo sapiens, 48 hours. It is filed as cell-based. On the procedure: (§1) Cell lines used are available from American Type Culture Collection (ATCC), for example, cell cultures containing A549 (ATCC# CCL-185), HeLa (ATCC# CCL-2), HCT116 ATTC# CCL-247), and H1299 (ATCC# CRL-5803) cells were maintained in T175 flasks following the ATCC recommended media and handling procedures. […] A 20,000 cells/ml solution was made for plating. Cells were plated in black Packard 96 well plates by placing 100 μl per well (2,000 cells per well). […] The definitions of the cell types used are as follows: A549 is lung carcinoma; HI 299 is non-small cell lung carcinoma; HI 155 is non-small cell lung carcinoma; AsPC-1 is pancreatic adenocarcinoma; Caov-3 is ovarian adenocarcinoma; COLO 205 is colorectal adenocarcinoma; DLD-1 colorectal adenocarcinoma; HCT116 is colorectal carcinoma; DU 145 is prostate carcinoma; ES-2 is ovarian clear cell carcinoma; H460 is large cell lung carcinoma; HELA is cervical adenocarcinoma; MIA PaCa-2 is pancreatice carcinoma; OVCAR-3 is ovarian adenocarcinoma; OVCAR8 is ovarian carcinoma; PC3 is prostate adenocarcinoma; SK-OV-3 is ovarian adenocarcinoma; SU86.86 is pancreatic carcinoma; TOV-21G is avarian clear cell carcinoma; U2OS is bone osteosarcoma; is ASPC-I is pancreatic adenocarcinoma; BXPC-3 is pabcreatic adenocarcinoma; HL60 is promyeloblast promyelocytic leukemia; K562 is bone marrow chronic myelogenous leukemia; L1210 is mouse lymphocytic leukemia; MOLT3 is T lymphoblast acute lymphoblastic leukemia; MOLT4 is T lymphoblast acute lymphoblastic leukemia; SW620 is colorectal adenocarcinoma; THP-1 is monocyte acute monocytic leukemia; U937 is histiocytic lymphoma; and UACC-257 is melanoma.
(§2) Compounds and additional media were added 24 hours after cell plating. […] All compound testing was done in duplicate using 6.3 fold dilutions starting with 10 mM. […] Taxol and at least one additional control were run on all plates. Three microliters of the compound master plate were added to deep well blocks containing 750 μl of RPMI media. One hundred microliters were transferred from the compound/media deep well blocks to the plated cells resulting in a 500 fold dilution of the compounds. Cells were grown at 37° C., 5% CO2 for 48 hours.
(§3) Cells to be analyzed by photography were fixed and stained. One hundred microliters of media were removed and 100 μl of 9.3% formamide was added to each well. Plates were left on the benchtop for 45 minutes. A staining solution containing 1.55 μl of 1 mg/ml DAPI added to 18.75 ml PBS was warmed for 15 minutes at 37° C. The cells were aspirated prior to washing with 100 μl of PBS. Seventy microliters of PBS were aspirated and 170 μl of the DAPI solution were added to each well of fixed cells. Plates were left at room temperature for one hour then aspirated and washed twice with 100 μl of PBS. The stained cells were left at 4° C. for a minimum of 16 hours before photographic analysis with Array Scan II (Cellomics). Analysis of the photographic images to determine numbers of live cells (proliferation), apoptotic cells and dead cells, were according to the methods described in U.S. Utility patent application Ser. No. 10/652,440, which incorporated herein in its entirety.

Assay [2] concerns A549 cells. The assay can be described thus: Cell proliferation PAD assay, A549. It is filed as cell-based. The settings on record: Homo sapiens, 48 hours. How it is done:
as §1, §2, §3

For assay [3], the target named is T1, TRAF6/Uev1A/Ubc13 (Homo sapiens, UniProt Q9Y4K3).
T1 sequence (Q9Y4K3 1-522): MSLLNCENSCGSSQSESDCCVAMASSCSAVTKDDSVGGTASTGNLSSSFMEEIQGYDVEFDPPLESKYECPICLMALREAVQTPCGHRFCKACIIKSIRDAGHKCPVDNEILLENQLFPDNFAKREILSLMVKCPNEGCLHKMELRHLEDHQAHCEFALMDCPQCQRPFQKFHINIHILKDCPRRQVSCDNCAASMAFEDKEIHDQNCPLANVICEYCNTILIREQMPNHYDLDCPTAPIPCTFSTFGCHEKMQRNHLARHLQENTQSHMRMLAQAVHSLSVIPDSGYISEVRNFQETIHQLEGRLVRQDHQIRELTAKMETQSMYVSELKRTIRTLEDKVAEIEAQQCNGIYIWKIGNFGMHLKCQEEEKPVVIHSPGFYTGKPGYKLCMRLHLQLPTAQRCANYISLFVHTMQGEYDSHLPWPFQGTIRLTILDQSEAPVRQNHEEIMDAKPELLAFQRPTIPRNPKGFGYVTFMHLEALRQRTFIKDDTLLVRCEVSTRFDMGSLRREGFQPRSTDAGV
The assay can be described thus: TRAF6/Uev1A/Ubc13 plate-based ubiquitin ligase assay. It is filed as biochemical. How it is done: For the assays described below, the TRAF6/Uev1A/UBC13 assay is the biochemical plate-based assay of TRAF6 ligase activity using Ubc13 as the E2 enzyme. The gel-based assay is the biochemical solution-based TRAF6 ligase assay (by SDS-PAGE and Western blot) to confirm the plate-based ELISA assay. The APC assay is an assay which is another E3 ligase (APC2/APC11) biochemical assay.
A 96-well Ni-plate was blocked with 100 μl of 1% casein in PBS for 1 hour at room temperature. The plates were then washed three times with 200 μl of 1×PBS and 80 μl of a reaction buffer was added per well which contained 50 ng of Flag-ubiquitin, 50 ng of His-ubiquitin, 62.5 mM Tris pH 7.5, 6.25 mM MgCl2, 1.0 mM DTT, and 2 μM ATP. To each well was added 10 μl of a solution of the compound in DMSO. The reaction was started by adding 10 μl of a solution consisting of 10 ng human E1, 25 ng each of Uev1a and Ubc13, and 100 ng TRAF6 in the reaction buffer. The plates were shaken for 10 minutes and incubate at room temperature for 1 hour. After the incubation, the plates were washed three times with 200 μl 1×PBS in 0.05% Tween and 100 μl of an antibody mix consisting of anti-Flag (1:30,000 dilution; Sigma F-3165) and anti-Mouse IgG-HRP (1/150,000 dilution; Jackson Immunoresearch #115-035-146) in 1×PBS with 0.25% BSA. The plates were then incubated for another 1 hour at room temperature, and after incubation the plate was washed three times with 200 μl 1×PBS with 0.05% Tween. The amount of ubiquitin was measured by adding 100 μl of Lumino substrate (1:5 dilution) and reading the luminescence with a fluorimeter.
Table 2 below illustrates the inhibitory activity of the compounds of the invention determined by the TRAF6/Uev1A/Ubc13 assay as well as in the ICAM, APC and the ROC1/CUL1 Ubiquitin Ligase Assay (SCF Assay). The IC50 values were determined using a various concentrations of the compounds.

The mark [4] stands for this setting: NCI-H1299, 3pt, read-out: H1299 3pt.
Where [5] appears, read: NCI-H1299, 6pt, read-out: H1299 6pt.

Regarding `O=S(=O)(Nc1c(F)cc(F)cc1F)c1cccc2nonc12` [compound 16, N-(2,4,6-trifluorophenyl)-2,1,3-benzoxadiazole-4-sulfonamide], the IC50 in assay [1] (setting [4]) was not below 20 µM; in assay [2] (3pt, read-out: A549 3pt), not below 20 µM.

With `Cc1ccc(NS(=O)(=O)c2cccc3nonc23)c(Cl)c1` [compound 54, N-(2-chloro-4-methylphenyl)-2,1,3-benzoxadiazole-4-sulfonamide], the IC50 in assay [1] (setting [4]) was not below 20 µM; in assay [2] (3pt, read-out: A549 3pt), not below 20 µM.

Take `O=S(=O)(NCCN1CCCC1)c1cccc2nonc12` [compound 55, N-(2-pyrrolidin-1-ylethyl)-2,1,3-benzoxadiazole-4-sulfonamide]: the IC50 in assay [1] (setting [4]) was not below 20 µM; in assay [2] (3pt, read-out: A549 3pt), not below 20 µM.

For the compound `Cc1ccc(Cl)cc1NS(=O)(=O)c1cccc2nonc12` [compound 56, N-(5-chloro-2-methylphenyl)-2,1,3-benzoxadiazole-4-sulfonamide], the IC50 was not below 20 µM in assay [1] (setting [4]) and not below 20 µM in assay [2] (3pt, read-out: A549 3pt).

For `Cc1cc(C)cc(-c2cc(Cl)c3nonc3c2)c1` [compound 322, 4-Chloro-6-[3,5-(dimethyl)phenyl]-2,1,3-benzoxadiazole], the IC50 in assay [1] (setting [5]) is not below 20 µM; in assay [2] (6pt, read-out: A549 6pt) it was not below 20 µM.

As for `O=S(=O)(Nc1cccc2nsnc12)c1ccc(CBr)cc1` [compound 98, N-2,1,3-benzothiadiazol-4-yl-4-(bromomethyl)benzenesulfonamide], the IC50 in assay [1] (setting [4]) was not below 20 µM; in assay [2] (3pt, read-out: A549 3pt) it was not below 20 µM.

Consider `O=S(=O)(c1cccc2nonc12)N1CCN(c2ccc(Cl)c(C(F)(F)F)c2)CC1` [compound 132, 4-({4-[4-chloro-3-(trifluoromethyl)phenyl]piperazin-1-yl}sulfonyl)-2,1,3-benzoxadiazole], for which the IC50 was not below 20 µM in assay [1] (setting [4]) and not below 20 µM in assay [2] (3pt, read-out: A549 3pt).

Regarding `O=S(=O)(c1cccc2nonc12)N1CCN(c2cnccn2)CC1` [compound 131, 4-[(4-pyrazin-2-ylpiperazin-1-yl)sulfonyl]-2,1,3-benzoxadiazole], the IC50 is not below 20 µM in assay [1] (setting [4]) and not below 20 µM in assay [2] (3pt, read-out: A549 3pt).

Turning to `Cc1ccc(C)c(NS(=O)(=O)c2cccc3nonc23)c1` [compound 21, N-(2,5-dimethylphenyl)-2,1,3-benzoxadiazole-4-sulfonamide], the IC50 in assay [1] (setting [4]) was 1 to 20 µM; in assay [2] (3pt, read-out: A549 3pt) it was not below 20 µM.

For the compound `O=S(=O)(Nc1c(F)cccc1F)c1cccc2nonc12` [compound 15, N-(2,6-difluorophenyl)-2,1,3-benzoxadiazole-4-sulfonamide], the IC50 in assay [1] (setting [4]) was 1 to 20 µM; in assay [2] (3pt, read-out: A549 3pt) it was not below 20 µM.

For `O=[N+]([O-])c1ccc(-c2cccc(F)c2)c2nonc12` [compound 320, 7-(3-Fluorophenyl)-4-nitro-2,1,3-benzoxadiazole], the IC50 in assay [1] (setting [5]) is less than 1 µM; in assay [2] (6pt, read-out: A549 6pt), 1 to 20 µM.

With `O=S(=O)(Nc1ccc(F)c(F)c1)c1cccc2nonc12` [compound 23, N-(3,4-difluorophenyl)-2,1,3-benzoxadiazole-4-sulfonamide], the IC50 in assay [1] (setting [4]) is not below 20 µM; in assay [2] (3pt, read-out: A549 3pt), not below 20 µM.

Turning to `Cc1cccc(-c2cccc3nonc23)c1` [compound 306, 4-(3-Methylphenyl)-2,1,3-benzoxadiazole], the IC50 was not below 20 µM in assay [3] and not below 20 µM in assay [2] (6pt, read-out: A549 6pt).

With `O=[N+]([O-])c1cccc(-c2cc(Cl)c3nonc3c2)c1` [compound 331, 4-Chloro-6-(3-nitrophenyl)-2,1,3-benzoxadiazole], the IC50 in assay [2] (6pt, read-out: A549 6pt) was not below 20 µM.

For the compound `COC(=O)c1ccc(NS(=O)(=O)c2ccc(Cl)c3nonc23)cc1` [compound 8, Methyl 4-{[(7-chloro-2,1,3-benzoxadiazol-4-yl)sulfonyl]amino}benzoate], the IC50 in assay [3] was not below 20 µM; in assay [2] (3pt, read-out: A549 3pt), not below 20 µM.

Regarding `COc1ccccc1-c1cc(Cl)c2nonc2c1` [compound 330, 4-Chloro-6-(2-methoxyphenyl)-2,1,3-benzoxadiazole], the IC50 in assay [2] (6pt, read-out: A549 6pt) is not below 20 µM.

As to `O=[N+]([O-])c1c(N2CCCCC2)cc(N2CCC(O)(c3ccccc3)CC2)c2nonc12` [compound 301, 1-(7-nitro-6-piperidin-1-yl-2,1,3-benzoxadiazol-4-yl)-4-phenylpiperidin-4-ol], the IC50 in assay [3] was not below 20 µM.

`CCN(CC)c1cc(N2CCC3(CC2)OC(=O)c2ccccc23)c2nonc2c1[N+](=O)[O-]` [compound 303, 1′-[6-(diethylamino)-7-nitro-2,1,3-benzoxadiazol-4-yl]-3H-spiro[2-benzofuran-1,4′-piperidin]-3-one] came in with an IC50 in assay [3] not below 20 µM.

Regarding `O=[N+]([O-])c1c(N2CCCCC2)cc(N2CCN(c3ccc(Cl)c(C(F)(F)F)c3)CC2)c2nonc12` [compound 295, 7-{4-[4-chloro-3-(trifluoromethyl)phenyl]piperazin-1-yl}-4-nitro-5-piperidin-1-yl-2,1,3-benzoxadiazole], the IC50 in assay [3] is not below 20 µM.

Compound `O=C1OC2(CCN(c3ccc([N+](=O)[O-])c4nonc34)CC2)c2ccccc21` [compound 302, 1′-(7-nitro-2,1,3-benzoxadiazol-4-yl)-3H-spiro[2-benzofuran-1,4′-piperidin]-3-one] came in with an IC50 in assay [3] of 1 to 20 µM.

In turn, `CCN(CC)c1cc(N2CCC3(CC2)OCc2ccccc23)c2nonc2c1[N+](=O)[O-]` [compound 298, N,N-diethyl-4-nitro-7-(1′H,3H-spiro[2-benzofuran-1,4′-piperidin]-1′-yl)-2,1,3-benzoxadiazol-5-amine] gave an IC50 in assay [3] not below 20 µM.

Regarding `N#Cc1cccnc1N1CCN(c2cc(N3CCCCC3)c([N+](=O)[O-])c3nonc23)CC1` [compound 297, 2-[4-(7-nitro-6-piperidin-1-yl-2,1,3-benzoxadiazol-4-yl)piperazin-1-yl]nicotinonitrile], in assay [3], the IC50 is not below 20 µM.
